Experiments:
hTLR9 = target: T1, hTLR9 (Homo sapiens, UniProt Q9NR96); set-up: host or cells: HEK; settings: data disclosed in US20150105370; read-out: HEK/hTLR9 IC50; cited from earlier work
T1 sequence (Q9NR96 26-1032): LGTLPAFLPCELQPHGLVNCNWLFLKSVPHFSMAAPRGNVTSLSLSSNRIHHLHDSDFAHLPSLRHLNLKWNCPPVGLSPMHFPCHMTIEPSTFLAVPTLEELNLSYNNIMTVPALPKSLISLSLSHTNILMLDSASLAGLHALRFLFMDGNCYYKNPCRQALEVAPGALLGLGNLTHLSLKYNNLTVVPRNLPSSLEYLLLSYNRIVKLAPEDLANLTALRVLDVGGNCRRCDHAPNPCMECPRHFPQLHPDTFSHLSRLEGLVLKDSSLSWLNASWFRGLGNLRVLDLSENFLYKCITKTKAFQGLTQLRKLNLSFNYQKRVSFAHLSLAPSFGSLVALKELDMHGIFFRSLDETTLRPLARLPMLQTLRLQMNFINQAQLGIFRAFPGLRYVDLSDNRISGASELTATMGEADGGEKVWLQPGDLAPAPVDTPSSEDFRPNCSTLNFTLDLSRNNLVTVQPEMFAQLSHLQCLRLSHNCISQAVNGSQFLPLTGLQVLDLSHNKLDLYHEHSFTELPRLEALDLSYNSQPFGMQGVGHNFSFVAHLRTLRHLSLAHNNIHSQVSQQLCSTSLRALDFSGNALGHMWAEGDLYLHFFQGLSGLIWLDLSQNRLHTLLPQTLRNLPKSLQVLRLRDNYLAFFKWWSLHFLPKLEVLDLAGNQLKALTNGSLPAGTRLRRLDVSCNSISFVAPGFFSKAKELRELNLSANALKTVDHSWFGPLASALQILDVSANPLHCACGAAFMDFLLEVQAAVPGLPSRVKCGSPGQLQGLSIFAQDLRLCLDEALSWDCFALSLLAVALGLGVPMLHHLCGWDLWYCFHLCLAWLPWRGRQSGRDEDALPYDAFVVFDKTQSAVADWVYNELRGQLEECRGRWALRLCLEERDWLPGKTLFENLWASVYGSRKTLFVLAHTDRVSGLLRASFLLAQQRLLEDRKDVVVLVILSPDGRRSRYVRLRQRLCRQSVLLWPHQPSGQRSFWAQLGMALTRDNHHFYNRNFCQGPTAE

hERG channel = target: T2, hERG channel (Homo sapiens, UniProt Q12809); assay: hERG channel inhibition assay (patch-clamp, CHO hERG cells); assay type: cell-based; settings: for safety window (hERG IC20/TLR7/8/9 IC50, in words): compared to the compounds of this invention; for hERG IC20/TLR7 IC50 / hERG IC20/TLR9 IC50: safety ratio
T2 construct: expressed in transfected cells
T2 sequence (Q12809 whole entry): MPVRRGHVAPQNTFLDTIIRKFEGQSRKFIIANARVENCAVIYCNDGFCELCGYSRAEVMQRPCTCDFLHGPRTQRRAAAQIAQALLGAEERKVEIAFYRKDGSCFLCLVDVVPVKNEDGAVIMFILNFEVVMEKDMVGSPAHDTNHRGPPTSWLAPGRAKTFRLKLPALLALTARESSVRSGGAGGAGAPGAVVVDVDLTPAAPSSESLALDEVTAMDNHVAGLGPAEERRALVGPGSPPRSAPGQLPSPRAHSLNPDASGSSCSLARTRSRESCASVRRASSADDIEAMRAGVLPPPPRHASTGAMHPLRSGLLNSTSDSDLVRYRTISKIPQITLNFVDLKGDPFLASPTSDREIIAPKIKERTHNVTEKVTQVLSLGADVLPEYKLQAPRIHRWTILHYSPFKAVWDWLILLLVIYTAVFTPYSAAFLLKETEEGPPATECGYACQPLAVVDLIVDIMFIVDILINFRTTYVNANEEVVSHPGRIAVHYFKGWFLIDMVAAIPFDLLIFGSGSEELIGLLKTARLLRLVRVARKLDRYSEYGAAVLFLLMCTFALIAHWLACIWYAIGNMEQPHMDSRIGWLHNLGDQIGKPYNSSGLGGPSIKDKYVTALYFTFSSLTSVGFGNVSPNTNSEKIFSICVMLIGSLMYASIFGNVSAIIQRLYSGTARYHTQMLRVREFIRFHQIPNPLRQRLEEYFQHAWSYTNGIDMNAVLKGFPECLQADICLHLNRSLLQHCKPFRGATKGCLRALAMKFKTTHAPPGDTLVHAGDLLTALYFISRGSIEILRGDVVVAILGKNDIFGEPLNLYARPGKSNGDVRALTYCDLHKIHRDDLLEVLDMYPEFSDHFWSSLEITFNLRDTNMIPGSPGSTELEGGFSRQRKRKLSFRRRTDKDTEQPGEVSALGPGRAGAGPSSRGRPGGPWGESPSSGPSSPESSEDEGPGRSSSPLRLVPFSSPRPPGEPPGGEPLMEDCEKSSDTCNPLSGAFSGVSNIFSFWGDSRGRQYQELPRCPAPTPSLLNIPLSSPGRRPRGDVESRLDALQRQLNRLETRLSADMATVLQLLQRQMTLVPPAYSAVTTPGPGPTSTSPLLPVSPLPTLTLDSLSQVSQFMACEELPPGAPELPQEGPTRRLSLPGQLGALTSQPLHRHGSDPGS
Protocol: hERG Channel Inhibition Assay:
The hERG K+ channels were cloned in humans and stably expressed in a CHO (Chinese hamster ovary) cell line. CHOhERG cells were used for patch-clamp (voltage-clamp, whole-cell) experiments. Cells were stimulated by a voltage pattern to activate hERG channels and conduct IKhERG Currents (rapid delayed outward rectifier potassium current of the hERG channel). After the cells were stabilized for a few minutes, the amplitude and kinetics of IKhERG were recorded at a stimulation frequency of 0.1 Hz, (6 bpm). Thereafter, the test compound was added to the preparation at increasing concentrations. For each concentration, an attempt was made to reach a steady-state effect, usually, this was achieved within 3-10 min at which time the next highest concentration was applied. The amplitude and kinetics of IKhERG are recorded in each concentration of the drug which were compared to the control values (taken as 100%). (references: Redfern W S, Carlsson L, Davis A S, Lynch W G, MacKenzie I, Palethorpe S, Siegl P K, Strang I, Sullivan A T, Wallis R, Camm A J, Hammond T G. 2003; Relationships between preclinical cardiac electrophysiology, clinical QT interval prolongation and torsade de pointes for a broad range of drugs: evidence for a provisional safety margin in drug development. Cardiovasc. Res. 58:32-45, Sanguinetti M C, Tristani-Firouzi M. 2006; hERG potassium channels and cardiac arrhythmia. Nature 440:463-469, Webster R, Leishman D, Walker D. 2002; Towards a drug concentration effect relationship for QT prolongation and torsades de pointes. Curr. Opin. Drug Discov. Devel. 5:116-26).

CYP2C9 = target: T3, CYP2C9 (Homo sapiens, UniProt P11712); assay: CYP inhibition assay in human liver microsome, CYP2C9; assay type: in vitro ADME; settings: percentage inhibition, substrate Diclofenac 5 μM, <0: not or weak inhibitor
T3 construct: tissue BD-Gentest 452117; host or cells: human liver microsomes
T3 sequence (P11712 whole entry): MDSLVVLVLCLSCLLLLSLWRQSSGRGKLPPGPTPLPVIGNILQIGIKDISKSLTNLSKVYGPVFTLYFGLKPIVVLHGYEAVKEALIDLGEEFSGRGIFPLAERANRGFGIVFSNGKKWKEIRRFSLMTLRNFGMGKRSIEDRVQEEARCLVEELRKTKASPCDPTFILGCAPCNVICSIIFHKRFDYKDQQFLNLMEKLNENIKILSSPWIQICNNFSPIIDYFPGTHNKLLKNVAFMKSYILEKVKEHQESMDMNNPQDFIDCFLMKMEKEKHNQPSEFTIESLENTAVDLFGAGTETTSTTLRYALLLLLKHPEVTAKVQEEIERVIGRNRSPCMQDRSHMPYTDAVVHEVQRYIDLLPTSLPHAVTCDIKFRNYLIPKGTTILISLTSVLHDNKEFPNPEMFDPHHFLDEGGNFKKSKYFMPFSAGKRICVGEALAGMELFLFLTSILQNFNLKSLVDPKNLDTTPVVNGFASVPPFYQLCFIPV
Protocol: (§1) This is a high throughput screening assay used for assessment of reversible inhibition of CYP2C9, CYP2D6, and CYP3A4 activity of test compounds in human liver microsome (HLM) in early discovery stage.
(§2) Procedure 10 mM DMSO stock solutions of test compounds were diluted in DMSO to generate 2 mM intermediate stock solution. 250 nL of intermediate stock solution were transferred in duplicate into 3 separate 384 well microtitre plates (assay-ready plates). A mixture of HLM and each substrate was made up. 45 μL of HLM substrate mix was then transferred to each well of an assay ready plate and mixed. The negative (solvent) and positive controls (standard inhibitor for each CYP) were included in each assay ready plate. The assay ready plate was warmed to 37° C. in an incubator over 10 minutes. 5 μL pre-warmed NADPH regenerating system was added to each incubation well to start the reaction. Final incubation volume was 50 μL. The assay plate then was placed back in the 37° C. incubator. After incubation (10 minutes for CYP2D6) for 5 minutes, incubates were quenched by addition of 50 μL 100% acetonitrile containing internal standards (400 ng/mL 13C6-4′-OH-Diclofenac, 20 ng/mL D3-Dextrorphan and 20 ng/mL D4-1′OH-Midazolam). The supernatants were collected for RapidFire/MS/MS analysis.
(§3) RapidFire online solid phase extraction/sample injection system (Agilent) coupled with API4000 triple quadrupole mass spectrometer (AB Sciex) were used for sample analysis. The mobile phase composed of acetonitrile and water supplemented with 0.1% formic acid. A C4 solid phase extraction cartridge is used for sample separation. MS detection is achieved in positive ion MRM mode.
(§4) Data analysis Peak areas for substrate, metabolite and internal standard are determined using the RapidFire integrator software (version 3.6.12009.12296). Peak area ratios (PAR) of metabolite and internal standard (stable-labelled metabolite) are then calculated. The measurement window for each experiment is then defined: PAR (0% activity)=average PAR for all incubations containing concentrated inhibitor; Par (100% activity)=average PAR for all incubations containing no inhibitor (DMSO controls); % Activity (test inhibitor)=[PAR (test inhibitor)-PAR (0% activity)]/[PAR (100% activity)-PAR (0% activity)]; % Inhibition (test inhibitor)=100-% Activity (test inhibitor).

CYP2D6 = target: T4, CYP2D6 (Homo sapiens, UniProt P10635); assay: CYP inhibition assay in human liver microsome, CYP2D6; assay type: in vitro ADME; settings: percentage inhibition, substrate Dextromethorphan 5 μM, <0: not or weak inhibitor
T4 construct: tissue BD-Gentest 452117; host or cells: human liver microsomes
T4 sequence (P10635 whole entry): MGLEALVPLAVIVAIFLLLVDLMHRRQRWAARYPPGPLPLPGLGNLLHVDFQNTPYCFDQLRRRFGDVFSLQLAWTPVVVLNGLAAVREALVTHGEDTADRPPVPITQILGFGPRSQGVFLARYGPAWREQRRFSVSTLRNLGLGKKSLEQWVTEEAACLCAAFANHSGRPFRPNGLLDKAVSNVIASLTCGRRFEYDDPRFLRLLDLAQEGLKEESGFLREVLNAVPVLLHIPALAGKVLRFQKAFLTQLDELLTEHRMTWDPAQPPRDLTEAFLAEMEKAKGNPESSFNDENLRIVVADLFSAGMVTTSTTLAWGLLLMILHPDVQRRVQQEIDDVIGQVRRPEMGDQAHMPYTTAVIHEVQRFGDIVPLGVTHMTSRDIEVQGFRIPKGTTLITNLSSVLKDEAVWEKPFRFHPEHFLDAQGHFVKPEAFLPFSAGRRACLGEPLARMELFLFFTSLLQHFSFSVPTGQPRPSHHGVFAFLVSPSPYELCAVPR
Protocol: as §1, §2, §3, §4

CYP3A4 = target: T5, CYP3A4 (Homo sapiens, UniProt P08684); assay: CYP inhibition assay in human liver microsome, CYP3A4; assay type: in vitro ADME; settings: percentage inhibition, substrate Midazolam 5 μM, <0: not or weak inhibitor
T5 construct: tissue BD-Gentest 452117; host or cells: human liver microsomes
T5 sequence (P08684 whole entry): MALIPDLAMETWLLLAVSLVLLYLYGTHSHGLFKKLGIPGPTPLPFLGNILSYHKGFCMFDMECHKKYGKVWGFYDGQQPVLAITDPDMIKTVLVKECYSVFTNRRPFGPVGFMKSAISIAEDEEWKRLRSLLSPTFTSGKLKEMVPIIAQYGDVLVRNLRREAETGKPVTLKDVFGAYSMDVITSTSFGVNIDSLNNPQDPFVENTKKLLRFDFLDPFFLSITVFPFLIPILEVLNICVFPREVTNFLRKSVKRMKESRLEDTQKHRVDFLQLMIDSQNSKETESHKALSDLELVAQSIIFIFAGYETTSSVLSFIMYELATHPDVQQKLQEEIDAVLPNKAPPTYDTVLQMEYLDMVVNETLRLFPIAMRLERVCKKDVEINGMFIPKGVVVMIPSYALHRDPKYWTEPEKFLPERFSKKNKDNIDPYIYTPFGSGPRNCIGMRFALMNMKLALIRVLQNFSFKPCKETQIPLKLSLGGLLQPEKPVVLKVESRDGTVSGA
Protocol: as §1, §2, §3, §4

| SMILES | IC50 (hTLR9) [µM] | safety window (hERG IC20/TLR7/8/9 IC50, in words) (hERG channel) | hERG IC20/TLR7 IC50 (hERG channel) | hERG IC20/TLR9 IC50 (hERG channel) | CYP (%) 2C9 (CYP2C9) [%] | CYP (%) 2D6 (CYP2D6) [%] | CYP (%) 3A4 (CYP3A4) [%] |
| --- | --- | --- | --- | --- | --- | --- | --- |
| C[C@@H]1CN(c2ccc(C#N)c3ncccc23)C[C@H](CN2CCN(c3ccccn3)CC2)O1 [ER-888285, reference compound] | > 2 | much narrower safety window | 8.4 | 0.5 |  |  |  |
| C[C@@H]1CN(c2ccc(C#N)c3ncccc23)C[C@H](CN2CCN(c3ccncc3)CC2)O1 [ER-888286, reference compound] | > 2 | much narrower safety window | 0.3 | 0.2 | 29.5 | 52.5 | 5.5 |
| C[C@@H]1CN(c2ccc(C#N)c3ncccc23)C[C@H](CN2CCN(c3ccccc3)CC2)O1 [ER-887258, reference compound] | > 2 | much narrower safety window | 8.1 | 0.3 |  |  |  |
